Assay results: US20080090836A1, “Pyrazole Compounds Useful In The Treatment Of Inflammation” (priority 2004, published 2008)
pIC50: −log10 of the molar value.

Biological target: T1, purified human 15-lipoxygenase (Homo sapiens, UniProt P16050)
T1 sequence (P16050 1-662): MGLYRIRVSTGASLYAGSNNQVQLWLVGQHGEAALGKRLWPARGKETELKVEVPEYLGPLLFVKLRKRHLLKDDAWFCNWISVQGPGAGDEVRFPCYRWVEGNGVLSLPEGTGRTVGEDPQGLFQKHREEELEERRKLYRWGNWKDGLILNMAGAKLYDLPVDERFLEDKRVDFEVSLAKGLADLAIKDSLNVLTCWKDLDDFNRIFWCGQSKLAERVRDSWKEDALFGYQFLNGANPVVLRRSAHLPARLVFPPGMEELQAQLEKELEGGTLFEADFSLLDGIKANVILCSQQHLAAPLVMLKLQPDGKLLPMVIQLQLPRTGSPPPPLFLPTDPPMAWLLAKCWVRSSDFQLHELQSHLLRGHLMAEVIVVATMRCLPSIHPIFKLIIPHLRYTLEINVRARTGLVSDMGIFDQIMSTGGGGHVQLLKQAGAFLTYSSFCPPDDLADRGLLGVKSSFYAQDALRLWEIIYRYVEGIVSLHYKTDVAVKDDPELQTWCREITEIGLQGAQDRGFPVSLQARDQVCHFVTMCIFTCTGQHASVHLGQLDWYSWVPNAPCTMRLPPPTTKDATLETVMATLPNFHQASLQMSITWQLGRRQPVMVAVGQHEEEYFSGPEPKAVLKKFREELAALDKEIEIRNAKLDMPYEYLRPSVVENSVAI
Experiment: 15-lipoxygenase inhibition assay (oxidation of arachidonic acid, product measured by reverse phase HPLC)
Assay type: biochemical
Conditions: arachidonic acid substrate, room temperature, PBS pH 7.4
Experimental: The assay employed takes advantage of the ability of lipoxygenases to oxidize polyunsaturated fatty acids, containing a 1,4-cis-pentadiene configuration, to their corresponding hydroperoxy or hydroxyl derivatives. In this particular assay, the lipoxygenase was a purified human 15-lipoxygenase and the fatty acid was arachidonic acid. The assay is performed at room temperature (20-22° C.) and the following are added to each well in a 96-well microliter plate:
a) 35 μL phosphate buffered saline (PBS) (pH 7.4);
b) inhibitor (i.e. compound) or vehicle (0.5 μl DMSO);
c) 10 μL of a 10× concentrated solution of 15-lipoxygenase in PBS. The plates are incubated for 5 minutes at room temperature;
The plate is then incubated for 10 minutes at room temperature;
e) the enzymatic reaction is terminated by the addition of 100 μl methanol; and
f) the amount of 15-hydroperoxy-eicosatetraenoic acid or 15-hydroxyeicosatetraenoic acid is measured by reverse phase HPLC.

Row | pIC50 | Structure (SMILES)
1 | 6.20 | CCOC(=O)CNC(=O)n1nc(C(=O)Nc2ccc(F)cc2Cl)cc1C [Example 31, {[3-(2-Chloro-4-fluorophenylcarbamoyl)-5-Methylpyrazole-1-carbonyl]-amino}-acetic acid ethyl ester]
2 | 6.18 | Cc1cc(C(=O)Nc2ccc(F)cc2Cl)nn1C(=O)NC1CCN(C(=O)OCc2ccccc2)CC1 [Example 32, 4-{[3-(2-Chloro-4-fluorophenylcarbamoyl)-5-methylpyrazole-1-carbonyl]amino}-piperidine-1-carboxylic acid benzyl ester]
3 | 5.25 | C=CCNC(=O)n1nc(C(=O)Nc2ccc(F)cc2Cl)cc1C [Example 33, 5-Methylpyrazole-1,3-dicarboxylic acid 1-allylamide 3-[(2-chloro-4-fluorophenyl)amide]]
4 | 5.23 | COc1ccc(S(=O)(=O)n2nc(C(=O)Nc3ccc(F)cc3Cl)cc2C)cc1 [Example 51, 1-(4-Methoxy-benzenesulfonyl)-5-methylpyrazole-3-carboxylic acid (2-chloro-4-fluorophenyl)amide]

Continued, compound first:

Row | Structure (SMILES) | pIC50
5 | Cc1cn(C(=O)NCCc2cccs2)nc1C(=O)Nc1ccc(F)cc1Cl [Example 4, 4-Methylpyrazole-1,3-dicarboxylic acid 3-[(2-chloro-4-fluorophenyl)-amide] 1-[(2-thien-2-ylethyl)amide]] | 5.43
6 | CCOC(=O)CNC(=O)n1cc(C)c(C(=O)Nc2ccc(F)cc2Cl)n1 [Example 17, {[3-(2-Chloro-4-fluorophenylcarbamoyl)-4-methylpyrazole-1-carbonyl]-amino}acetic acid ethyl ester] | 5.07
7 | Cc1cc(C(=O)Nc2ccc(F)cc2Cl)nn1C(=O)NCCc1cccs1 [Example 30, 5-Methylpyrazole-1,3-dicarboxylic acid 3-[(2-chloro-4-fluorophenyl)-amide] 1-[(2-thien-2-ylethyl)-amide]] | 6.15
8 | CCCCOc1ccc(S(=O)(=O)n2nc(C(=O)Nc3ccc(F)cc3Cl)cc2C)cc1 [Example 50, 1-(4-Butoxy-benzenesulfonyl)-5-methylpyrazole-3-carboxylic acid (2-chloro-4-fluorophenyl)amide] | 5.08
